Data: patent publication US20210332024A1, “MODULATORS OF PIN1 ACTIVITY AND USES THEREOF” (Yeda Research and Development Co. Ltd., priority 2019, published 2021)
pKi: −log10 of the molar value.

Tests used:
[1] = molecular target: T1, Pin1 in PAT8988T cell lysates (Homo sapiens, UniProt Q13526); experiment: Lysate pull-down assay with Pin1-3-DTB; format: binding; details: 1 μM probe, 1 hour incubation in cell lysates
T1 construct: endogenous in cells; host or cells: PATU-8988T
Experimental: (§1) The indicated cells were treated with increasing concentrations of either DMSO, Pin1-3, or Pin1-3-AcA for 5 hours. Cells were harvested by scraping and washed twice with PBS before lysis with 50 mM HEPES (pH 7.4), 1 mM EDTA, 10% glycerol, 1 mM TCEP, 150 mM NaCl, 1 mM EDTA, 0.5% NP-40, and protease inhibitor tablet (Roche cat. #4693159001). After clarifying (14,000 rpm for 15 minutes), samples were treated with the indicated concentrations of Pin1-3-DTB at 4° C. for 1 hour. Lysates were then incubated with streptavidin agarose resin (Thermo Scientific, cat. #20349) for 1.5 hour at 4° C. Beads were washed four times with 500 μl of washing buffer (50 mM HEPES (pH 7.5), 10 mM NaCl, 1 mM EDTA, 10% glycerol), then pelleted by centrifugation and dried. The beads were boiled for 5 minutes at 95° C. in 2×LDS+10% β-mercaptoethanol. Proteins of interest were then assessed via Western blotting using the bolt system (Life Technologies).

GST-Pin1 = GST-Pin1 (Homo sapiens, UniProt Q13526); experiment: Fluorescence polarization (FP) competition assay; format: binding; details: FP assay, competition with fluorescein-labeled peptide, 250 nM GST-Pin1; read-out: Ki (apparent)
Experimental: Binding affinity to Pin1 was determined using a fluorescence polarization assay to assess competition with an N-terminal fluorescein-labeled peptide (Bth-D-phosThr-Pip-Nal), which was obtained from JPT Peptide Technologies and Proteintech Group. The indicated concentrations of candidate compound were pre-incubated for 12 hours at 4° C. with a solution containing 250 nM glutathione S-transferase (GST)-Pin1, 5 nM of fluorescein-labeled peptide probe, 10 μg/ml bovine serum albumin, 0.01% Tween-20 and 1 mM DTT (dithiothreitol) in a buffer of 10 mM HEPES, 10 mM NaCl and 1% glycerol (pH 7.4). Measurements of FP were performed in black 384-well plates (Corning) using an EnVision™ reader. Apparent Ki values (under the tested conditions) obtained from the FP assay results were derived from the Kenakin Ki equation:
Kenakin Ki=(Lb)(EC50)(Kd)/(Lo)(Ro)+Lb(Ro−Lo+Lb−Kd)
Sittampalam G. S. et al., Eli Lilly & Company and the National Center for Advancing Translational Sciences, 2004].
Covalent labeling of Pin1 was confirmed to translate into enzyme inhibition via a fluorescence polarization (FP) competition assay using a FITC-labeled substrate mimetic peptide inhibitor, as well as a chymotrypsin-coupled PPIase assay, using procedures described in Wei et al. [Nat Med 2015, 21:457-466].
The fluorescent polarization assay was performed in a dose-dependent and time-dependent manner, in order to further characterize the kinetic parameters of Pin1-3 binding to Pin1.

[2] = tested on: Pin1-knockout pancreatic cancer cells; experiment: Organoid growth in Matrigel, Pin1-knockout PATU-8988T; format: cell-based; details: 1 μM, 9 days
Experimental: (§2) As three dimensional (3D) organoid models can reflect in vivo results better than monolayer cell culture [Baker et al., Trends Cancer Res 2016, 2:176-190], the anti-proliferative activity of Pin1-3 in PATU-8988T was further evaluated in wild-type or Pin1-knockout cells grown as organoids in Matrigel™ droplets. Cells were treated for 9 days with Pin1-3 (or Pin1-3-AcA or vehicle as a control), replenishing the compound in media every 3 days.

Pin1 in IMR32 cells = molecular target: T2, Pin1 in IMR32 cells (Homo sapiens, UniProt Q13526); experiment: Live cell competition assay with Pin1-3-DTB pull-down, IMR32 cells; format: cell-based; details: IMR32 cells, 0.25, 0.5 or 1 μM Pin1-3 or 1 μM Pin1-3-AcA
T2 construct: endogenous in cells; host or cells: IMR32
Experimental: as §1
The indicated cells were plated in 10 cm plates with 2.5 million cells per plate in 6 ml of medium. The day after plating, cells were treated with the indicated concentrations of candidate inhibitor for the indicated time points. The cells were then washed two times with cold phosphate buffer saline (1 ml per 10 cm plate) and collected by scraping with a cell scraper. […]

[3] = tested on: wild-type 8988T pancreatic cancer cells; experiment: Organoid growth in Matrigel, wild-type PATU-8988T; format: cell-based; details: 1 μM, 9 days
Experimental: as §2

Pin1 in PATU-8988T cells = molecular target: T3, Pin1 in PATU-8988T cells (Homo sapiens, UniProt Q13526); experiment: Live cell competition assay with Pin1-3-DTB pull-down, PATU-8988T cells; format: cell-based; details: 0.25 to 1 μM for 5 hours (Pin1-3-AcA 1 μM)
T3 construct: endogenous in cells; host or cells: PATU-8988T
Experimental: as §1
The indicated cells were plated in 10 cm plates with 2.5 million cells per plate in 6 ml of medium. The day after plating, cells were treated with the indicated concentrations of candidate inhibitor for the indicated time points. The cells were then washed two times with cold phosphate buffer saline (1 ml per 10 cm plate) and collected by scraping with a cell scraper. Cells were lysed in 50 mM HEPES (pH 7.4), 1 mM EDTA, 10% glycerol, 1 mM TCEP, 150 mM NaCl, 1 mM EDTA, 0.5% NP-40, and protease inhibitor tablet (Roche)-using 210 μl of cell lysis buffer per 10 cm plate of cells. After clarifying (14,000 rpm for 15 minutes), 9 μl of each lysate sample was combined with […] of 4×LDS+10% β-mercaptoethanol (in a ratio of 3:1), boiled for 5 minutes, and set aside for the input loading control. Then, 200 μl of each lysate sample was incubated with 1 μM of Pin1-3-DTB for 1 hour at 4° C. and processed as described hereinabove for the lysate pull-down assays.
In order to assess cell permeability of Pin1-3 as well as its ability to engage cellular Pin1, PATU-8988T cells were treated with Pin1-3 (0.25 to 1 μM) for 5 hours. After cell lysis, the lysates were incubated with Pin1-3-DTB (1 μM, 1 hour at 4° C.) and probe-labeled targets were pulled down with streptavidin beads.

GST-Pin1, sequence (Q13526 whole entry): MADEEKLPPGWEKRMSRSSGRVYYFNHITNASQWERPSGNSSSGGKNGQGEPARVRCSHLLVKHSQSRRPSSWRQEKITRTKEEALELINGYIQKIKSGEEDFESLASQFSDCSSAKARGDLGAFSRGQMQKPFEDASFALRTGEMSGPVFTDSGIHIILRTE
T2 sequence (Q13526 whole entry): as above
T1 sequence (Q13526 whole entry): as above
T3 sequence (Q13526 whole entry): as above

Pull-down of Pin1 by the probe [1]	pKi (GST-Pin1)	Engagement of Pin1 (competition with Pin1-3-DTB) (Pin1 in IMR32 cells)	Competition with Pin1-3-DTB for Pin1 binding (pull-down) (Pin1 in PATU-8988T cells)	Structure (SMILES)	Organoid growth [2]	Organoid growth [3]
complete pull-down	7.42			CC1NC(=O)NC1CCCCCC(=O)NCCOCCOCCOCCC(=O)NCC(C)(C)CN(C(=O)CCl)C1CCS(=O)(=O)C1 (stereo not shown) [Pin1-3-DTB]		
	< 4.00	does not	no competition	CC(=O)N(CC(C)(C)C)C1CCS(=O)(=O)C1 (stereo not shown) [Pin1-3-AcA, reference compound]	no effect	no effect
